Source: US11707449B2, “Methods and formulations for treatment of spinobulbar muscular atrophy” (ST. JUDE CHILDREN'S RESEARCH HOSPITAL, INC., priority 2017, dated 2023)

Experiments:
[1] = molecular target: T1, AR BF3 binding pocket and Bag-1L (Homo sapiens, UniProt P10275); details: cited from earlier work
T1 sequence (P10275 1-920): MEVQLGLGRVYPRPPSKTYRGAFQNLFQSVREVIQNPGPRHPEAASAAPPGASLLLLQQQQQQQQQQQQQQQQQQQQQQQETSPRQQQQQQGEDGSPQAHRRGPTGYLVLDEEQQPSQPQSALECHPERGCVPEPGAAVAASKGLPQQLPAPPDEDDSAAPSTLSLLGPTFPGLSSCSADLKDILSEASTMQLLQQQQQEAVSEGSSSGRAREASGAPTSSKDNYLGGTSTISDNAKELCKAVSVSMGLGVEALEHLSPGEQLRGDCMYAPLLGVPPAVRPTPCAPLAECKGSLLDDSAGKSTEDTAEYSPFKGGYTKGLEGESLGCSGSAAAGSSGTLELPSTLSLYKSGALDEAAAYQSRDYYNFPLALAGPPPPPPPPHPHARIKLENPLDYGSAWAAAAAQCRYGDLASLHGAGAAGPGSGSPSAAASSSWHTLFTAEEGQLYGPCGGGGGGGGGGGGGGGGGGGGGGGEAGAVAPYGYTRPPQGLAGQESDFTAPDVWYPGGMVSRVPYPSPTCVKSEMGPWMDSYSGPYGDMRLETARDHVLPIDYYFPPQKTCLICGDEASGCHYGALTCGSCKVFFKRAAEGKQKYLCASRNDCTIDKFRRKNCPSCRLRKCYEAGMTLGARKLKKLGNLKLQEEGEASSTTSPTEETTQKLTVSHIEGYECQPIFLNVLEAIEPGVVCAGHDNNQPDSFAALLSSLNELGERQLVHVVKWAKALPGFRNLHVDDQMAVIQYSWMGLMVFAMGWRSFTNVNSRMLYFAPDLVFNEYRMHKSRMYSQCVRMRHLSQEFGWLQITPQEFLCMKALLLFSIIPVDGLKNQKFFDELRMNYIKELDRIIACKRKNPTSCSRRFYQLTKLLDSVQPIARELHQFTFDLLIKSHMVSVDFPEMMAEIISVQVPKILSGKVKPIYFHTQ

[2] = system: flies expressing human AR52Q in pan-neuronal tissues (ELAV>UAS-AR52Q); assay: Viability of SBMA flies (rescue of DHT-induced lethality); assay type: in vivo, Drosophila; details: flies reared on food containing 1 mM DHT and compound (TA, MEPB 0 to 400 μM)
Description: UAS-AR52Q, UAS-AR52Q-K720A, and UAS-AR66Q-E897K fly stocks were generated as previously described^8. Fly stocks were crossed to various GAL4 driver lines (ELAV-GAL4 for pan-neuronal, OK371-GAL4 for motor neuron, GMR-GAL4 for eye) to induce expression of the AR transgene in a tissue-specific manner in fly vials containing fly food with either vehicle (1% ethanol +/−0.1% DMSO) or drugs. Upon the presence of progeny, parental flies were removed, and F1 flies were scored for phenotypic analysis. Viability was determined as previously described^40. Briefly, the population frequency of adult F1 SBMA flies (ELAV>UAS-AR52Q or OK371>UAS-AR52Q) and control flies (GAL4-ELAV; CyO-GFP) were determined by the presence or absence of the CyO phenotypic marker. At least three independent biological replicates (F0 crosses) were performed with new drug/food preparations for each treatment group, and a total of at least 50 flies were scored for each treatment group. To determine locomotor activity of SBMA flies, adult F1 flies (OK371>UAS-AR52Q) reared on food containing vehicle or drug were allowed to walk for 90 seconds in one well of a 12-well tissue culture plate while video was recorded using a Leica M205C stereomicroscope and Leica DFC320 digital camera. Videos were recorded for at least 15 flies per treatment group. Tracing of fly movement and analysis of displacement and velocity were performed using ImageJ software. Preparation and staining of larval neuromuscular junctions and ventral ganglions were performed as previously described^8.

SMILES | BF3-Bag-1L binding [1] | SBMA fly viability [2]
Cc1cccc(C)c1OCCSc1nc2ccccc2[nH]1 [CPD49, 2-((2-(2,6-dimethylphenoxy)ethyl)thio)-1H-benzimidazole] | inhibited | –
CC(C)Cc1ccc(C(C)C(=O)O)cc1 (centres unmarked) [ibuprofen] | – | did not
